Results from patent US20260284079A1, “LIPID PRODRUGS OF ALLOPR[…] USES THEREOF” (Seaport Therapeutics, Inc., priority 2023, published 2026).

Assay: Safety and tolerability, treatment-emergent adverse events (Example 1)
Type: in vivo, human
Conditions: for Any TEAE, subjects (%): 9 subjects
From the text: As used herein, the term “Adverse Event” refers to any event, side-effect, or other untoward medical occurrence in a subject (i.e., a clinical study participant) administered a pharmaceutical product. […] As used herein, a “treatment-emergent adverse event” or “TEAE” refers to an adverse event not present prior to treatment (i.e., receiving a dose of Compound 1) or an already present event that worsens in intensity or frequency following treatment. TEAEs may be classified by system organ class (SOC); an exemplary SOC is Nervous System Disorders. Examples of Nervous System Disorder TEAEs include somnolence, headache, dizziness, lethargy, balance disorder, and cognitive disorder.
A three-part study to assess the safety, tolerability, and PK/PD properties of Compound 1 in humans was performed. Part 1 was a randomized, double-blinded, placebo-controlled, single ascending dose (SAD) phase. Part 2 was a randomized, open-label phase to assess the effect of food on Compound 1. Part 3 was a randomized, double-blinded, placebo-controlled multiple-ascending dose phase.
Part 1 Primary Objectives: to evaluate the safety and tolerability of single oral doses of Compound 1 and to determine the maximum tolerated dose (MTD) following ascending single oral doses of Compound 1. Part 1 Primary Endpoints: incidence, severity, and duration of treatment-emergent adverse events (TEAEs), serious adverse events (SAEs), and incidence of clinically significant vital signs, pulse oximetry, ECGs, safety laboratory, or physical examination findings and MTD of Compound 1 in healthy subjects.
The safety, tolerability, and PK of Compound 1 administered as multiple doses (up to 7 days) was determined. Subjects in cohorts 4-6 were administered Compound 1 once daily in the morning (QAM) in a fed state. Subjects in cohorts 7-8 were administered Compound 1 once daily in the evening (QHS) in a fed state.
Part 3 Primary Objective: to evaluate the safety and tolerability of multiple oral doses of Compound 1 and to determine the maximum tolerated dose of Compound 1 following multiple oral doses. Part 3 Primary Endpoints: incidence, severity, and duration of treatment-emergent adverse events, […], and incidence of clinically significant vital signs, pulse oximetry, ECGs, safety laboratory, or physical examination findings, and the maximum tolerated dose of Compound 1 in healthy subjects.

## CCCCCCCC(=O)OCC(COC(=O)CCCCCCC)OC(=O)CC(C)CC(=O)OCOC(=O)O[C@@H]1CC[C@@]2(C)[C@@H](CC[C@@H]3[C@@H]2CC[C@]2(C)[C@@H](C(C)=O)CC[C@@H]32)C1 (stereo partly drawn) [Compound 1]
Example 1, Parts 1-3
  tolerability across dose levels tested: generally well tolerated
MAD Cohort 4, 250 mg QAM
  TEAE Abnormal Dreams (Psychiatric Disorders), subjects (%): 0
  TEAE Balance Disorder (Nervous System Disorders), subjects (%): 0
  TEAE Cognitive Disorder (Nervous System Disorders), subjects (%): 0
  TEAE Diarrhoea (Gastrointestinal Disorders), subjects (%): 0
  TEAE Disturbance in attention (Nervous System Disorders), subjects (%): 0
  TEAE Dizziness (Nervous System Disorders), subjects (%): 0
  TEAE Euphoric Mood (Psychiatric Disorders), subjects (%): 0
  TEAE Fatigue (General Disorders and Administration Site Conditions), subjects (%): 0
  TEAE Hallucination, Visual (Psychiatric Disorders), subjects (%): 0
  TEAE Headache (Nervous System Disorders), subjects (%): 0
  TEAE Lethargy (Nervous System Disorders), subjects (%): 0
  TEAE Rhinorrhoea (Respiratory, Thoracic, and Mediastinal Disorders), subjects (%): 0
  TEAE Sedation (Nervous System Disorders), subjects (%): 0
  TEAE Somnolence (Nervous System Disorders), subjects (%): 7 (77.8%)
  Any TEAE, subjects (%): 7 (77.8%)
MAD Cohort 5, 375 mg QAM
  TEAE Abnormal Dreams (Psychiatric Disorders), subjects (%): 1 (11.1%)
  TEAE Balance Disorder (Nervous System Disorders), subjects (%): 0
  TEAE Cognitive Disorder (Nervous System Disorders), subjects (%): 1 (11.1%)
  TEAE Diarrhoea (Gastrointestinal Disorders), subjects (%): 0
  TEAE Disturbance in attention (Nervous System Disorders), subjects (%): 0
  TEAE Dizziness (Nervous System Disorders), subjects (%): 0
  TEAE Euphoric Mood (Psychiatric Disorders), subjects (%): 0
  TEAE Fatigue (General Disorders and Administration Site Conditions), subjects (%): 0
  TEAE Hallucination, Visual (Psychiatric Disorders), subjects (%): 0
  TEAE Headache (Nervous System Disorders), subjects (%): 0
  TEAE Lethargy (Nervous System Disorders), subjects (%): 0
  TEAE Rhinorrhoea (Respiratory, Thoracic, and Mediastinal Disorders), subjects (%): 0
  TEAE Sedation (Nervous System Disorders), subjects (%): 0
  TEAE Somnolence (Nervous System Disorders), subjects (%): 6 (66.7%)
  Any TEAE, subjects (%): 6 (66.7%)
MAD Cohort 6, 500 mg QAM
  TEAE Abnormal Dreams (Psychiatric Disorders), subjects (%): 0
  TEAE Balance Disorder (Nervous System Disorders), subjects (%): 7 (77.8%)
  TEAE Cognitive Disorder (Nervous System Disorders), subjects (%): 4 (44.4%)
  TEAE Diarrhoea (Gastrointestinal Disorders), subjects (%): 0
  TEAE Disturbance in attention (Nervous System Disorders), subjects (%): 1 (11.1%)
  TEAE Dizziness (Nervous System Disorders), subjects (%): 1 (11.1%)
  TEAE Euphoric Mood (Psychiatric Disorders), subjects (%): 1 (11.1%)
  TEAE Fatigue (General Disorders and Administration Site Conditions), subjects (%): 0
  TEAE Hallucination, Visual (Psychiatric Disorders), subjects (%): 1 (11.1%)
  TEAE Headache (Nervous System Disorders), subjects (%): 0
  TEAE Lethargy (Nervous System Disorders), subjects (%): 1 (11.1%)
  TEAE Rhinorrhoea (Respiratory, Thoracic, and Mediastinal Disorders), subjects (%): 0
  TEAE Sedation (Nervous System Disorders), subjects (%): 0
  TEAE Somnolence (Nervous System Disorders), subjects (%): 9 (100%)
  Any TEAE, subjects (%): 9 (100%)
MAD Cohort 7, 375 mg QHS
  TEAE Abnormal Dreams (Psychiatric Disorders), subjects (%): 0
  TEAE Balance Disorder (Nervous System Disorders), subjects (%): 2
  TEAE Cognitive Disorder (Nervous System Disorders), subjects (%): 2 (22.2%)
  TEAE Diarrhoea (Gastrointestinal Disorders), subjects (%): 1 (11.1%)
  TEAE Disturbance in attention (Nervous System Disorders), subjects (%): 1 (11.1%)
  TEAE Dizziness (Nervous System Disorders), subjects (%): 1 (11.1%)
  TEAE Euphoric Mood (Psychiatric Disorders), subjects (%): 1 (11.1%)
  TEAE Fatigue (General Disorders and Administration Site Conditions), subjects (%): 0
  TEAE Hallucination, Visual (Psychiatric Disorders), subjects (%): 0
  TEAE Headache (Nervous System Disorders), subjects (%): 1 (11.1%)
  TEAE Lethargy (Nervous System Disorders), subjects (%): 0
  TEAE Rhinorrhoea (Respiratory, Thoracic, and Mediastinal Disorders), subjects (%): 0
  TEAE Sedation (Nervous System Disorders), subjects (%): 0
  TEAE Somnolence (Nervous System Disorders), subjects (%): 5 (55.6%)
  Any TEAE, subjects (%): 6 (66.7%)
MAD Cohort 8, 375 mg QHS
  TEAE Abnormal Dreams (Psychiatric Disorders), subjects (%): 0
  TEAE Balance Disorder (Nervous System Disorders), subjects (%): 0
  TEAE Cognitive Disorder (Nervous System Disorders), subjects (%): 0
  TEAE Diarrhoea (Gastrointestinal Disorders), subjects (%): 0
  TEAE Disturbance in attention (Nervous System Disorders), subjects (%): 0
  TEAE Dizziness (Nervous System Disorders), subjects (%): 0
  TEAE Euphoric Mood (Psychiatric Disorders), subjects (%): 0
  TEAE Fatigue (General Disorders and Administration Site Conditions), subjects (%): 0
  TEAE Hallucination, Visual (Psychiatric Disorders), subjects (%): 0
  TEAE Headache (Nervous System Disorders), subjects (%): 0
  TEAE Lethargy (Nervous System Disorders), subjects (%): 0
  TEAE Rhinorrhoea (Respiratory, Thoracic, and Mediastinal Disorders), subjects (%): 0
  TEAE Sedation (Nervous System Disorders), subjects (%): 1 (11.1%)
  TEAE Somnolence (Nervous System Disorders), subjects (%): 1 (11.1%)
  Any TEAE, subjects (%): 2 (22.2%)
Part 2, 140 mg
  effect of food on safety or tolerability: Food did not impact safety or tolerability
Most frequently at doses greater than or equal to 500 mg
  most common adverse event: somnolence
